This is an account of results in patent US20260297042A1, “BIARYLAMIDE DERIVATIVES AND THEIR USE AS PKMYT1 INHIBITORS” (CANCER RESEARCH TECHNOLOGY LIMITED, priority 2023, published 2026).

Assay [1] deals with T1, Human PKMYT1 (Homo sapiens, UniProt Q99640).
T1 construct: Human PKMYT1 75-362 was cloned as a TEV cleavable 6xHis fusion; 6xHis (TEV cleavable) (cleaved yes); made in house; host or cells: bacterial cells
T1 sequence (Q99640 75-362): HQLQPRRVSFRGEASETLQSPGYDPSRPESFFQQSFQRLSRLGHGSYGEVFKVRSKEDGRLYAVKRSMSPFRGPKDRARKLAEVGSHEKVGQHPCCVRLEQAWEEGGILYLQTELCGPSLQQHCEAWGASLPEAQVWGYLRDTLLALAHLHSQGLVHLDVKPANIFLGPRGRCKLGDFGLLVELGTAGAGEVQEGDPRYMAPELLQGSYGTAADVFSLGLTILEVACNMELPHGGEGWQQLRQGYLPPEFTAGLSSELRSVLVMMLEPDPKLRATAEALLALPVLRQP
The assay can be described thus: PKMYT1 biochemical ADP-Glo enzymatic assay. The settings on record: ADP-Glo. A digest of the protocol:
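Luminescent ADP-Glo Max read-out of ADP produced by 15 nM PKMYT1 (residues 75-362, bacterial, His-tag removed) from 500 µM ATP without peptide substrate. Reaction: 50 mM HEPES pH 7.5, 10 mM MgCl2, 1 mM EGTA, 0.01% Brij-35, 60 min, 26 °C. IC50 values fitted from 10-point curves.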

Assay [2] deals with T2, WEE1 (Homo sapiens, UniProt P30291).
T2 construct: purchased Thermo Fisher PR7373A
T2 sequence (P30291 whole entry): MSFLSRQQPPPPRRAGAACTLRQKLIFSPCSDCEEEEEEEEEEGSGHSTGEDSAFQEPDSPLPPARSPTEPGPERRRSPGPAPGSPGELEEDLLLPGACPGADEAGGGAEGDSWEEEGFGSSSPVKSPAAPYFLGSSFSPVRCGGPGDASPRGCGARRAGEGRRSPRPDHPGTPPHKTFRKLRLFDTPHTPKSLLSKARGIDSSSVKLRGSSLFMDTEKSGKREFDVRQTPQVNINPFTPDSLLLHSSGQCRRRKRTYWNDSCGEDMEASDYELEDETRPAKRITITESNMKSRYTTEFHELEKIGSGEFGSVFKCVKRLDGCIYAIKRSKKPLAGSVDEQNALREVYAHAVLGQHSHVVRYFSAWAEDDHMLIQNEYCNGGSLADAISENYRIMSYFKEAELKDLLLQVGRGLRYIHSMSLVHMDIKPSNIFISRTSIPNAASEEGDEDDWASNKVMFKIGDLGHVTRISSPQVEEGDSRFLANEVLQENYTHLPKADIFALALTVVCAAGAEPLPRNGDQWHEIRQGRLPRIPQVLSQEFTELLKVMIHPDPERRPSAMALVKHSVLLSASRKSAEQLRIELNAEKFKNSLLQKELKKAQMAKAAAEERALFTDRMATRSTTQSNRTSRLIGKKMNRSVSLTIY
The experiment in a line: Selectivity versus WEE1 assay (ADP-Glo enzymatic assay). Type of assay: biochemical. Conditions: for IC50: ADP-Glo; for PKMYT1 vs. WEE1 selectivity: fold difference in selectivity for PKMYT1 over WEE1. A digest of the protocol:
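ADP-Glo luminescence read-out after a 60 min reaction at 26° C, initiated by 30 µM ATP, with 15 nM enzyme in HEPES pH 7.5/MgCl2/EGTA/Brij-35 buffer containing 1% DMSO. Replicate IC50 values had to agree within 3-fold and fits needed r2 >0.9.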

Setting [3] is: 15 nM PKMYT1 kinase domain, 500 µM ATP, 60 minutes at 26° C., banded.
The mark [4] stands for this setting: 15 nM WEE1, 60 minutes at 26° C., banded.
Setting [5] is: banded, ">N" = at least in this band but could be higher.
Where [6] appears, read: PKMYT1 kinase domain 15 nM, banded values.

The structures appear in SMILES notation.

Turning to `Cc1ccc(O)c(C)c1NC(=O)c1cnc(Nc2ccn([C@@H]3CCN(C(=O)CC4CCNCC4)C3)n2)s1` [BAA-107, N-(3-Hydroxy-2,6-dimethyl-phenyl)-2-[[1-[(3R)-1-[2-(4-piperidyl)acetyl]pyrrolidin-3-yl]pyrazol-3-yl]amino]thiazole-5-carboxamide], the concentration for half-maximal inhibition (IC50) is 0.05 to 1 µM in assay [1] (setting [3]) and more than 11 µM in assay [2] (setting [4]). Moreover, the “PKMYT1 vs. WEE1 selectivity” value in assay [2] (setting [5]) is recorded as “>X (100-<1000 fold)”.

As to `CNc1ncc(C(=O)Nc2c(C)ccc(O)c2C)s1` [BAA-221, N-(3-Hydroxy-2,6-dimethyl-phenyl)-2-(methylamino)thiazole-5-carboxamide], the results for the IC50 in assay [1] (setting [3]) and in assay [2] (setting [4]) were 0.05 to 1 µM and more than 11 µM, respectively. For the same compound, the “PKMYT1 vs. WEE1 selectivity” value in assay [2] (setting [5]) is “X (100-<1000 fold)”.

On to `Cc1ccc(O)c(C)c1NC(=O)c1cnc(Nc2ccn(CC(=O)N3C[C@@H](C)N(C(=O)OC(C)(C)C)[C@@H](C)C3)n2)s1` [BAA-156], for which the IC50 in assay [1] (setting [3]) was less than 0.05 µM; in assay [2] (setting [4]) it was more than 11 µM. In addition, the “PKMYT1 vs. WEE1 selectivity” value in assay [2] (setting [5]) is recorded as “Y (1000-5000 fold)”.

For the compound `Cc1ccc(O)c(C)c1NC(=O)c1cnc(Nc2cccc(C(=O)N3CC(F)(F)C(F)(F)C3)c2)s1` [BAA-261, N-(3-hydroxy-2,6-dimethylphenyl)-2-((3-(3,3,4,4-tetrafluoropyrrolidine-1-carbonyl)phenyl)amino)thiazole-5-carboxamide], the values for the concentration for half-maximal inhibition (IC50) in assay [1] (setting [3]) and in assay [2] (setting [4]) were 0.05 to 1 µM and more than 11 µM, respectively. Besides, the “PKMYT1 vs. WEE1 selectivity” value in assay [2] (setting [5]) is “X (100-<1000 fold)”.

Take `Cc1ccc(O)c(C)c1NC(=O)c1cnc(Nc2ccn(CC(=O)NC3CCOCC3)n2)s1` [BAA-195]: the half-maximal inhibitory concentration (IC50) is less than 0.05 µM in assay [1] (setting [3]) and more than 11 µM in assay [2] (setting [4]). The “PKMYT1 vs. WEE1 selectivity” value in assay [2] (setting [5]) is reported as “Y (1000-5000 fold)”.

With `Cc1ccc(O)c(C)c1NC(=O)c1cnc(Nc2ccn(CC(=O)NCCO)n2)s1` [BAA-147, N-(3-hydroxy-2,6-dimethyl-phenyl)-2-[[1-[2-(2-hydroxyethylamino)-2-oxo-ethyl]pyrazol-3-yl]amino]thiazole-5-carboxamide], the figures for the IC50 in assay [1] (setting [3]) and in assay [2] (setting [4]) were less than 0.05 µM and more than 11 µM, respectively. For the same compound, the “PKMYT1 vs. WEE1 selectivity” value in assay [2] (setting [5]) is on record as “Y (1000-5000 fold)”.

Turning to `COC1CCN(C(=O)Cn2cc(C)c(Nc3ncc(C(=O)Nc4c(C)ccc(O)c4C)s3)n2)C1` (stereo not drawn) [BAA-538, N-(3-hydroxy-2,6-dimethylphenyl)-2-((1-(2-(3-methoxypyrrolidin-1-yl)-2-oxoethyl)-4-methyl-1H-pyrazol-3-yl)amino)thiazole-5-carboxamide], the IC50 in assay [1] (setting [6]) was less than 0.05 µM; in assay [2] (WEE1 15 nM, banded values) it was 1 to 11 µM. Further, the “PKMYT1 vs. WEE1 selectivity” value in assay [2] (banded) was “X (100-<1000 fold)”.

Consider `Cc1ccc(O)c(C)c1NC(=O)c1cnc(Nc2ccn([C@@H]3CCN(C(=O)COc4ccccc4)C3)n2)s1` [BAA-088], for which the IC50 is 0.05 to 1 µM in assay [1] (setting [3]) and more than 11 µM in assay [2] (setting [4]). Further, the “PKMYT1 vs. WEE1 selectivity” value in assay [2] (setting [5]) is on record as “>X (100-<1000 fold)”.

For the compound `Cn1ccc(Nc2ncc(C(=O)Nc3c(F)ccc(O)c3Cl)s2)n1` [BAA-480, N-(2-Chloro-6-fluoro-3-hydroxyphenyl)-2-((1-methyl-1H-pyrazol-3-yl)amino)thiazole-5-carboxamide], the IC50 was 0.05 to 1 µM in assay [1] (setting [6]) and more than 11 µM in assay [2] (WEE1 15 nM, banded values). In addition, the “PKMYT1 vs. WEE1 selectivity” value in assay [2] (banded) is given as “X (100-<1000 fold)”.

Turning to `Cc1ccc(O)c(C)c1NC(=O)c1cnc(Nc2ccn([C@@H]3CCN(C(=O)C(F)(F)c4ccccc4)C3)n2)s1` [BAA-099, 2-[[1-[(3R)-1-(2,2-Difluoro-2-phenyl-acetyl)pyrrolidin-3-yl]pyrazol-3-yl]amino]-N-(3-hydroxy-2,6-dimethyl-phenyl)thiazole-5-carboxamide], the IC50 in assay [1] (setting [3]) was 0.05 to 1 µM; in assay [2] (setting [4]) it was more than 11 µM. The “PKMYT1 vs. WEE1 selectivity” value in assay [2] (setting [5]) is “>X (100-<1000 fold)”.

Turning to `Cc1ccc(O)c(C)c1NC(=O)c1cnc(Nc2cc(C)n(C(C)C(=O)N3CCN(C)CC3)n2)s1` (stereo not drawn) [BAA-511, N-(3-hydroxy-2,6-dimethylphenyl)-2-((5-methyl-1-(1-(4-methylpiperazin-1-yl)-1-oxopropan-2-yl)-1H-pyrazol-3-yl)amino)thiazole-5-carboxamide], the IC50 in assay [1] (setting [6]) was 0.05 to 1 µM; in assay [2] (WEE1 15 nM, banded values), more than 11 µM. The “PKMYT1 vs. WEE1 selectivity” value in assay [2] (banded) is on record as “W (10-<100 fold)”.

Consider `Cc1ccc(O)c(C)c1NC(=O)c1cnc(Nc2onc(C)c2C(N)=O)s1` [BAA-448, 5-((5-((3-hydroxy-2,6-dimethylphenyl)carbamoyl)thiazol-2-yl)amino)-3-methylisoxazole-4-carboxamide], for which the IC50 was less than 0.05 µM in assay [1] (setting [6]) and more than 11 µM in assay [2] (WEE1 15 nM, banded values). The “PKMYT1 vs. WEE1 selectivity” value in assay [2] (banded) is listed as “Y (1000-5000 fold)”.

`COCCn1ccc(Nc2ncc(C(=O)Nc3c(C)ccc(O)c3C)s2)n1` [BAA-040]: the values for the IC50 in assay [1] (setting [3]) and in assay [2] (setting [4]) were 0.05 to 1 µM and more than 11 µM, respectively. Moreover, in assay [2] (setting [5]), the “PKMYT1 vs. WEE1 selectivity” value is listed as “X (100-<1000 fold)”.

As for `Cc1ccc(O)c(C)c1NC(=O)c1cnc(Nc2cc(Br)n(C)n2)s1` [BAA-494, 2-((5-Bromo-1-methyl-1H-pyrazol-3-yl)amino)-N-(3-hydroxy-2,6-dimethylphenyl)thiazole-5-carboxamide], the IC50 in assay [1] (setting [6]) was 0.05 to 1 µM; in assay [2] (WEE1 15 nM, banded values) it was more than 11 µM. Also, the “PKMYT1 vs. WEE1 selectivity” value in assay [2] (banded) was “X (100-<1000 fold)”.

In the case of `Cc1ccc(O)c(C)c1NC(=O)c1cnc(Nc2ccn(CC(=O)N[C@H](C)CO)n2)s1` [BAA-164], the IC50 in assay [1] (setting [3]) is less than 0.05 µM; in assay [2] (setting [4]) it was more than 11 µM. Besides, the “PKMYT1 vs. WEE1 selectivity” value in assay [2] (setting [5]) is listed as “Y (1000-5000 fold)”.

For `Cc1ccc(O)c(C)c1NC(=O)c1cnc(Nc2ccn(CC(=O)NC3CCC3)n2)s1` [BAA-191], the results for the IC50 in assay [1] (setting [3]) and in assay [2] (setting [4]) were less than 0.05 µM and more than 11 µM, respectively. Further, the “PKMYT1 vs. WEE1 selectivity” value in assay [2] (setting [5]) is given as “Y (1000-5000 fold)”.

Take `Cc1ccc(O)c(C)c1NC(=O)c1cnc(Nc2ccn(CC(=O)NCCN3CCN(C(=O)OC(C)(C)C)CC3)n2)s1` [BAA-158]: the 50% inhibitory concentration (IC50) in assay [1] (setting [3]) is 0.05 to 1 µM; in assay [2] (setting [4]) it was more than 11 µM. Moreover, the “PKMYT1 vs. WEE1 selectivity” value in assay [2] (setting [5]) was “X (100-<1000 fold)”.

Take `Cc1cc(Nc2ncc(C(=O)Nc3c(C)ccc(O)c3C)s2)n(C)n1` [BAA-127, 2-[(2,5-dimethylpyrazol-3-yl)amino]-N-(3-hydroxy-2,6-dimethyl-phenyl)thiazole-5-carboxamide]: the IC50 in assay [1] (setting [3]) is less than 0.05 µM; in assay [2] (setting [4]) it was more than 11 µM. Besides, the “PKMYT1 vs. WEE1 selectivity” value in assay [2] (setting [5]) is reported as “Y (1000-5000 fold)”.

`COc1c(Cl)ncnc1Nc1ncc(C(=O)Nc2c(C)ccc(O)c2C)s1` [BAA-562, 2-((6-chloro-5-methoxypyrimidin-4-yl)amino)-N-(3-hydroxy-2,6-dimethylphenyl)thiazole-5-carboxamide]: the IC50 in assay [1] (setting [6]) is less than 0.05 µM; in assay [2] (WEE1 15 nM, banded values), more than 11 µM. The “PKMYT1 vs. WEE1 selectivity” value in assay [2] (banded) is on record as “Y (1000-5000 fold)”.

As to `Cn1ccc(Nc2ncc(C(=O)Nc3c(Cl)ccc(O)c3F)s2)n1` [BAA-479, N-(6-Chloro-2-fluoro-3-hydroxyphenyl)-2-((1-methyl-1H-pyrazol-3-yl)amino)thiazole-5-carboxamide], the IC50 was 0.05 to 1 µM in assay [1] (setting [6]) and more than 11 µM in assay [2] (WEE1 15 nM, banded values). Also, in assay [2] (banded), the “PKMYT1 vs. WEE1 selectivity” value was “W (10-<100 fold)”.

With `Cc1ccc(O)c(C)c1NC(=O)c1cnc(Nc2ccn([C@@H]3CCN(C(=O)CC(C)(C)C)C3)n2)s1` [BAA-081, 2-[[1-[(3R)-1-(3,3-dimethylbutanoyl)pyrrolidin-3-yl]pyrazol-3-yl]amino]-N-(3-hydroxy-2,6-dimethyl-phenyl)thiazole-5-carboxamide], the 50% inhibitory concentration (IC50) in assay [1] (setting [3]) was 0.05 to 1 µM; in assay [2] (setting [4]), more than 11 µM. For the same compound, the “PKMYT1 vs. WEE1 selectivity” value in assay [2] (setting [5]) is recorded as “>X (100-<1000 fold)”.

Regarding `CCOc1ccc(Nc2ncc(C(=O)Nc3c(C)ccc(O)c3C)s2)cc1` [BAA-503, 2-((4-ethoxyphenyl)amino)-N-(3-hydroxy-2,6-dimethylphenyl)thiazole-5-carboxamide], the IC50 in assay [1] (setting [6]) was in the range of 0.05 to 1 µM; in assay [2] (WEE1 15 nM, banded values) it was 1 to 11 µM. The “PKMYT1 vs. WEE1 selectivity” value in assay [2] (banded) is reported as “W (10-<100 fold)”.

For `Cc1ccc(O)c(C)c1NC(=O)c1cnc(Nc2ccn(C3CCNCC3)n2)s1` [BAA-055], the IC50 in assay [1] (setting [3]) was 0.05 to 1 µM; in assay [2] (setting [4]), more than 11 µM. Besides, the “PKMYT1 vs. WEE1 selectivity” value in assay [2] (setting [5]) is recorded as “>X (100-<1000 fold)”.
